According to patent EP2853565A1, “Glutamate receptor photomodulators” (Consejo Superior De Investigaciones Científicas, priority 2013, dated 2015):

Assays:
[1] = UV-VIS absorption spectrum before and after irradiation; type: physicochemical; conditions: solution in DMSO, irradiation with ultraviolet light (380 nm)
[2] = target: T1, rat metabotropic glutamate receptor 5 (mGlu5) (Rattus norvegicus, UniProt P31424); assay: Single-cell calcium imaging (Fura-2) of quisqualate-evoked calcium oscillations, with photoisomerization by 390/490 nm light; type: cell-based; conditions: 3 µM quisqualate
T1 construct: expressed in transfected cells; host or cells: HEK tsA201 cells
T1 sequence (P31424 21-1171 isoform P31424-2 limits assumed): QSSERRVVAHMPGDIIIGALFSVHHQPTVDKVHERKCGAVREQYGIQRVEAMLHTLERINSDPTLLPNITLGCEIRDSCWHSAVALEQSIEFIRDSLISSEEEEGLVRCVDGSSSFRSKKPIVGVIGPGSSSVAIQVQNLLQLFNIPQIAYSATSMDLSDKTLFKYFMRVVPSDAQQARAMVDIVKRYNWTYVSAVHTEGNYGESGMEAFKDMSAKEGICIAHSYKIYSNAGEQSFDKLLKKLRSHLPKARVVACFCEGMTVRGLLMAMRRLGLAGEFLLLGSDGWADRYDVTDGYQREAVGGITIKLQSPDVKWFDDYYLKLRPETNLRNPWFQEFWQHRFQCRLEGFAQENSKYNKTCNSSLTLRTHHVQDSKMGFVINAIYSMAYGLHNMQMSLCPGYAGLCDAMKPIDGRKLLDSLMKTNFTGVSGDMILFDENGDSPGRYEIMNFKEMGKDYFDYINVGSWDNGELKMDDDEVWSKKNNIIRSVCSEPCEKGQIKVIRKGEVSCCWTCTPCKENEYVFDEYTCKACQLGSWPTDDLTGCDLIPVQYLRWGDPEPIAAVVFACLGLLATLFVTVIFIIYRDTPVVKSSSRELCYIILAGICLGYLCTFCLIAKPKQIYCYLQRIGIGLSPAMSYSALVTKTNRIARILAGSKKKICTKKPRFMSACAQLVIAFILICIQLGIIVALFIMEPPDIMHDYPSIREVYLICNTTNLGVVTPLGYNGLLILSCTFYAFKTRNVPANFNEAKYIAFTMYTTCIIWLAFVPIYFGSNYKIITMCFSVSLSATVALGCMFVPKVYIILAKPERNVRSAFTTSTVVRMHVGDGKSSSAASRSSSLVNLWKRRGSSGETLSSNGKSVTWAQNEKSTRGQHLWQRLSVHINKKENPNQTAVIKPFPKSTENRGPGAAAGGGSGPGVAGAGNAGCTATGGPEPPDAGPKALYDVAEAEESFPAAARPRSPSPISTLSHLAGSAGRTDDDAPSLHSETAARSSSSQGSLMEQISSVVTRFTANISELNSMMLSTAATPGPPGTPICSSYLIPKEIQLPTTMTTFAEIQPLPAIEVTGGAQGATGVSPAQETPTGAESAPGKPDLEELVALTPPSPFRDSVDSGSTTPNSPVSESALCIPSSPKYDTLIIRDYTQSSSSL
Protocol: Cell Culture and Transient Transfection: Human embryonic kidney (HEK) tsA201 cells were maintained at 37 °C and humidified atmosphere with 5% CO2; cells were grown in Dulbecco's Modified Eagle's Medium/Nutrient Mixture F-12 Ham (DMEM/F12, 1:1) medium, supplemented with 10% Fetal Bovine Serum (FBS) and antibiotics (1% Penicillin/Streptomycin). Once at confluence, culture flasks were washed twice with PBS and harvested with 300 µl Accutase. Expression of rat mGlu5a was induced by transient transfection of the cDNA-containing plasmid with X-tremeGENE 9 DNA Transfection Reagent. For transfection, cells were seeded at a concentration of 10^6 cells per well on 6-multiwell plates with a final volume of 2ml, and immediately transfected following manufacturer's instructions (100 µl mixture of 3:1 (µl:µg) of X-tremeGENE 9 DNA TR:mGlu5a plasmid in serum-free medium, 20 minutes incubation). About 24h after transfection, HEK tsA201 cells transiently overexpressing mGlu5a were seeded onto 15 mm glass coverslips pre-treated with Poly-L-Lysine to allow cell adhesion. Seeding concentration was maintained between 2/4·10^5 cells to get preconfluent cultures at the time of experiment. Transfected cells were used for single-cell calcium imaging experiments between 48 and 72 hours after transfection.
Single-cell Calcium Imaging: At the time of experiments, glass coverslips were mounted onto the recording chamber, and cells were loaded with the high affinity, ratiometric, intracellular calcium indicator Fura-2 AM; the dye was incubated during 30 minutes at 37°C and 5% CO2, at a final concentration of 10 µM in Ca^2+-free extracellular solution (ES, -Ca^2+). We used a ratiometric calcium sensor in order to avoid bleaching artefacts. Cells were then carefully rinsed with fresh ES, three to four times, before the recording chamber was placed on an inverted fully-motorised digital microscope (iMic 2000, Till Photonics, Gräfelfing, Germany). Images were acquired at room temperature with a UV Apochromat 40x oil objective lens (Olympus, Tokio, Japan). Fura-2 AM was excited consecutively for 10 ms at two different wavelengths (340 and 380 nm) as indicated by the manufacturer (Life Technologies, Paisley, UK) by using a Polychrome V light source (Till Photonics) and a 505 nm dichroic beamsplitter (Chroma Technology, Below Falls, VT, USA); emission at 510 nm was filtered by a D535/40nm emission filter (Chroma Technology) and finally collected by a cooled CCD camera (Interline Transfer IMAGO QE, Till Photonics). The fluorescence measurements (excitation + emission recording) were carried out every 2 seconds, and each measurement takes about 10-50 ms. The 340 and 380 nm images were stored by the TILLvisION imaging software (Till Photonics); the ratio of the emission when the sample was excited at 340 nm and the emission when it was excited at 380 nm was recorded and its mean value was calculated for each cell using the same software. Higher ratios correspond to higher intracellular calcium concentrations.
Agonists and allosteric modulators addition was obtained by carefully pipetting an initial 1:30 dilution of the compound directly into the accessory pool of the recording chamber, obtaining a final dilution of 1:1000 (total DMSO concentration was always lower than 1%). Activation of the agonist was induced in HEK tsA201 mGlu5a transfected cells with the glutamate analogue Quisqualic acid (3 µM). Only evoked, sustained intracellular calcium oscillations were taken into account as consistent cell responses to the application of the agonist; different responses (such as single-peak, peak-and-plateau, etc.), as well as spontaneously oscillating cells, were discarded as unsuitable for calculating the oscillatory frequency.
Solutions and Reagents: The extracellular solution (ES) used for single-cell calcium imaging contained: 140 mM NaCl, 5.4 mM KCI, 1 mM MgCl2, 10 mM HEPES, 10 mM glucose and 2 mM CaCl2 adjusted to pH 7.4 with NaOH. […]

[3] = Lipophilicity and solubility observed on handling (data not shown); type: physicochemical
Excerpt: SIB-1757 (48) (Sigma Aldrich) is a moderate-affinity non-competitive antagonist of mGlu5 [J. Pharmacol. Exp. Thr., 1999, 290, 170-181]. […] However, we tested the molecule on a cell line heterogously expressing mGlu5, to ensure that the biological effect of SIB-1757 (48) on the target receptor is not light dependent. […] Moreover, we observed a high lipophilicity of the molecule, and also a low solubility, which make SIB-1757 (48) quite uneasy to handle for biological applications (not shown).

Q: Which results are given for `Cc1ccc(O)c(/N=N/c2ccccc2)n1` [SIB-1757]?
A: photoswitch in the UV-VIS absorption spectrum [1]: did not reveal any photoswitch; effect on mGlu5 response (calcium oscillations) ([2]; HEK tsA201 cells): clearly an antagonist of mGlu5; light dependence of the activity on mGlu5 ([2]; UV (380/390 nm) and visible (500/490 nm) light): not light-dependent; lipophilicity [3]: high; solubility [3]: low
